Data on nine compounds can be found in US8691768B2, “Methods of determining delta opioid receptor subtypes” (The Regents of the University of California, priority 2008, dated 2014).

Structures can show the parent of a compound that is named as a salt. Where two headings read alike, the source gives them in different places.

In data set [1] the test system is Lewis rats, ventral tegmental area (VTA). Nature of the data set: Ethanol self-administration (two-bottle continuous access) after microinjection into the VTA. The conditions noted are these: 0.2 mM microinjected into VTA. It counts as in vivo. The protocol:
(§1) Male Lewis rats (Harlan Laboratories, Indianapolis, Ind.) weighing between 275-300 g were individually housed in a temperature controlled colony room (21° C.) maintained on a reversed light/dark cycle 12L:12D cycle (lights off at 10 A.M., lights on at 10 P.M.). All experiments were performed during the dark portion of the cycle. Food and water was provided ad libitum.
(§2) Ethanol was administered via a two-bottle continuous access, free-choice paradigm in which one bottle contained 10% ETOH (v/v) and the other bottle contained water. Sucrose was never added to the ethanol solution. The amount of ETOH and water consumed was measured at the same time daily (10 A.M.). […] Animals were weighed daily. Bottles were identical and their positions were counterbalanced and rotated daily. Change in drinking was calculated by subtracting the amount of drinking (mg/kg) on the day following treatment from the amount of drinking (mg/kg) on the day prior to treatment.
Animals were anesthetized and maintained on isoflurane (0.5 l/min) as needed for the duration of surgery. Animals were placed in a stereotaxic frame and were implanted with bilateral 26-gauge stainless steel chronic guide cannulas (Plastincs One, Roanoke, Va.) into the VTA (AP, −5.8; ML, ±0.5; DV, −7.0) based on the atlas of Paxinos and Watson (1997, The rat brain in sterotaxic coordinates, compact, Ed 3. San Diego: Academic). Cannulas were secured to the skull with dental cement. At the end of the surgical procedure, animals were treated with penicillin and topical antibiotics. A stainless steel dummy cannula (Plastics One) was inserted into each guide cannula and remained in place when the guide cannulas were not in use. Animals were allowed a 1 week recovery period before behavioral testing.
Each injection was made using a 1 μl syringe (Hamilton, Reno, Nev.) attached to 20 cm of PE 50 tubing connected to a 33-gauge injection cannula (Plastics One). Microinjections of 0.5 μl volumes were given at a rate of 0.5 μl/min using a syringe pump (kd Scientific, Hollister, Mass.) into each side of the VTA, except for bicuculline injections, where 0.25 μl was injected per side. Injection cannulas extended 2 mm beyond guide cannulas and were left in place for 1 min following microinjections to minimize the backflow of drug solution. In addition to drug microinjections, physiological saline microinjections were made in every rat to measure the effect of the injection manipulation alone on drinking Drug injections were randomized and counterbalanced. Change in drinking due to drug microinjections was calculated by comparing both the previous day's consumption (“baseline”) and to saline injection. At the conclusion of the experiment, animals were anesthetized with pentobarbital and perfused intracardially through the ascending aorta with 0.1 M phosphate buffered saline followed by 10% formalin. Brains were sectioned coronally at 50 μm, mounted and stained with cresyl violet. Only animals with confirmed injection sites within the VTA were included. No behavioral differences were observed between animals with anterior compared with posterior cannula placements.
For behavioral experiments, DPDPE (10mM; Sigma, St. Louis, Mo.), TIPP-ψ (5 μM; NIDA, Bethesda, Md.), Bicuculline (1 mM; Sigma), DAMGO (0.2 mM; Sigma), and CTOP (10 mM; Tocris, Ellisville, Mo.) were prepared in physiological saline for microinjection into the VTA. For electrophysiology, all drugs were applied by bath perfusion. Stock solutions were made and diluted in artificial CSF immediately before application. All chemicals were obtained from Sigma or Tocris except TIPP-ψ, which was acquired from NIDA.
Results are presented as mean±SEM where appropriate. For behavioral data, drinking was analyzed using 24 h time points. Raw drinking data were used for paired Student's t test comparisons probing drug effects on drinking compared with baseline or saline injections, a more conservative comparison than analyzing normalized data. […]

Data set [2] deals with C57BL/6 mice. Kind of data set: Limited access 2-bottle choice drinking paradigm (water or 10% ethanol). The class given is in vivo. The conditions noted are these: for ethanol consumption (drinking behavior): 5 mg/kg s.c. alone, 4 hour 2-bottle choice. The procedure: Male C57BL/6 mice (20-23 g, Taconic) were individually housed in ventilated PLEXIGLAS® cages at ambient temperature (21° C.) in a room maintained on a reversed 12L:12D cycle (lights off at 10.00, lights on at 22.00). Food and water was provided ad libitum. The mice were given time to acclimatize to the individual housing conditions and reverse light cycle before the start of the experiments. Mice were weighed weekly. All procedures were pre-approved by the Gallo Center Institutional Animal Care and Use Committee and were in accordance with National Institutes of Health Guide for the Care and Use of Laboratory Animal.
From Monday through Friday, mice were presented with a 2-bottle choice (water or 10% ethanol) for a 4 hour period (11.00-15.00) while in the dark cycle. Outside the 2-bottle choice period, all mice had unlimited access to water. All fluids were presented in 100-ml graduated glass cylinders with stainless-steel drinking spouts inserted through two grommets in front of the cage. Bottles were weighed to the nearest decigram (0.1 g) at the start and end of the 2-bottle choice period. The positions of the tubes containing water and ethanol were reversed daily to limit the effects of positional preference. Mice (9 per group) were injected with drugs subcutaneously (s.c.) on Friday 30 minutes before the start of the 2-bottle choice period.
(§3) Ethanol and sucrose solutions were prepared in tap water using 95% (vol/vol) ethanol (Gold Shield Chemical Co., Hayward, Calif., USA). Naltriben mesylate (NTB), 7-benzylidenenaltrexone maleate (BNTX) were purchased from Tocris (MO, USA). TAN-67 dihydrobromide, naltrindole hydrochloride (NTI) and naltrexone hydrochloride (NTX) were from Sigma-Aldrich (MO, USA). All compounds were dissolved in saline, with the exception of BNTX and NTB, which were dissolved in 5% DMSO. All drugs were made up immediately prior to injection and were administered s.c. at a volume of 10 ml/kg.
Baseline values were determined by taking the average of the consumption over the three days prior to injection. Statistical analysis was performed using Prism software (GraphPad, San Diego, Calif.). Significance was determined by means of one-way ANOVA or two-way ANOVA (repeated measures). A post-hoc Newman-Keuls (one-way ANOVA) or Bonferroni (two-way ANOVA) test was used when a significant overall effect was found (p<0.05). (*, p<0.05; **, p<0.01; ***, p<0.001).

For data set [3] the following is noted: numerous animal studies; cited from earlier work.
The conditions of data set [4]: clinical studies; cited from earlier work.
Data set [5] concerns C57BL/6 mice. Kind of data set: Locomotor activity assay. The class given is in vivo. The conditions noted are these: assayed 30 minutes after injection for 4 hours. The protocol:
To determine the effect of DOP-R subtype-selective drugs on mouse locomotion, the following locomotor activity assay was performed. On the testing day, mice (n=8) were habituated to the locomotor boxes for 30 minutes prior to the behavioral assay. Mice were injected s.c. with vehicle (saline or 5% DMSO), 25 mg/kg TAN-67 or 6 mg/kg NTB and placed back in the locomotor boxes. Locomotor activity was assayed 30 minutes after injection for 4 hours using Accuscan Digipro activity monitors (Accuscan, Columbus, Ohio). All mice were tested during their light phase between the hours of 9.00 and 14.00. Mice were placed into custom-made acrylic boxes that were 21×21 cm and 28 cm tall. One acrylic box was used per single Accuscan monitor (Accuscan). Activity monitors were themselves housed inside sound-attenuating chambers (Med-Associates, St Albans, Vt.) equipped with lights and fans, both of which were turned on during the testing session. To eliminate variability due to handling and novelty, on the two days before the testing day, mice were habituated to the locomotor boxes for 30 minutes injected with saline and placed in the locomotor box for an additional 30 minutes.

Data set [6] deals with C57BL/6 mice. Nature of the data set: Sucrose intake (natural reward). Particulars: mouse, in vivo. The procedure:
as §3

A short description of data set [7]: Rewarding effect of TAN-67 (Example 4, method not given). The conditions noted are these: therapeutically effective dose. It counts as in vivo.
Data set [8] relates to chronically drinking rats. Kind of data set: Drinking of chronically drinking rats after systemic administration. The class given is in vivo. The protocol:
as §1, §2

Data set [9] deals with GABAA IPSCs in VTA neurons. Nature of the data set: Slice electrophysiology, whole-cell patch-clamp of GABAA IPSCs in VTA neurons. It counts as cell-based, Lewis rats. Particulars: animals treated with 5 mg/kg morphine IP twice daily for 7 days. (In general: Patch clamp records ionic current or voltage across a cell membrane.)
In data set [10] the test system is DOR. Kind of data set: Immunocytochemistry of DOR expression in VTA tissue. It counts as in vivo, Lewis rats. The conditions noted are these: chronic treatment, once daily 0.5 mg/kg for 20 days.
Protocol: Materials and Methods: Male Lewis rats (250-300 g) were housed as in Example 8. In the first part of the experiment, rats received once daily injections of 0.5 mg/kg morphine for 20 days, after which they were sacrificed and the VTA tissue was examined for DOR expression. Standard immunocytochemical methods were used with a DOR-targeted antibody (SC9111) purchased from Santa Cruz Biotechnology, Inc. For electrophysiology experiments, rats received twice daily injections, 10 hours apart, of 5 mg/kg morphine IP for 7 days.
Data set [11] concerns the target delta opioid receptor (DOP-R) (rat) (UniProt P33533). Nature of the data set: cell-based or functional assay.

Chain of delta opioid receptor (DOP-R) (rat) (P33533 whole entry, stated change not applied): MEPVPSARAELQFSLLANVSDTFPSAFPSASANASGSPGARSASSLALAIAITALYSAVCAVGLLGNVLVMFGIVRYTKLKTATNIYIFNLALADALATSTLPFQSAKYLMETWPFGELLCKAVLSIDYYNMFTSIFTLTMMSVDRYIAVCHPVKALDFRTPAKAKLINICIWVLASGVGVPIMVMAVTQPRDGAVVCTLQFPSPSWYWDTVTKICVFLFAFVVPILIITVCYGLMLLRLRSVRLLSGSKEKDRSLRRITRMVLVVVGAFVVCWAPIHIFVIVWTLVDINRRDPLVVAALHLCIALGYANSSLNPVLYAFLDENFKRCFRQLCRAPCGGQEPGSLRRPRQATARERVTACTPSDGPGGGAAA

In the case of `C[C@@H](NC(=O)[C@@H](N)Cc1ccc(O)cc1)C(=O)NCC(=O)N(C)[C@@H](Cc1ccccc1)C(=O)NCCO` [DAMGO], the “drinking (EtOH)” value in [1] is “did not affect drinking”.

For the compound `Oc1ccc2c3c1O[C@H]1c4[nH]c5ccccc5c4C[C@@]4(O)[C@@H](C2)N(CC2CC2)CC[C@]314` [NTI, naltrindole hydrochloride], in [2] (10 or 15 mg/kg s.c.), the ethanol consumption result was “did not alter” and the ethanol preference entry was “did not alter”.

On to `O=C1CC[C@@]2(O)[C@H]3Cc4ccc(O)c5c4[C@@]2(CCN3CC2CC2)[C@H]1O5` [NTX, naltrexone hydrochloride], for which the ethanol consumption result in [2] (1.5 mg/kg s.c., 30 min before 4 hour 2-bottle choice) is “decrease in ethanol consumption”; in [3] it was “decrease ethanol consumption”; in data set [4], “decrease ethanol consumption”. For the same compound, the “ethanol consumption (drinking behavior)” value in data set [2] was “only moderate effects”.

As to `CN1CCC2(c3cccc(O)c3)Cc3nc4ccccc4cc3CC2C1` (stereo not drawn) [TAN-67, 2-methyl-4 alpha alpha-(3-hydroxyphenyl)-1,2,3,4,4a,5,12,12 alpha alpha-octahydro-quinolino[2,3,3,-g]isoquinoline], in data set [2] (12.5 mg/kg s.c. alone), the ethanol consumption entry is reported as “no effect”. Further, in data set [2] (dose dependence, s.c.), the ethanol consumption entry is recorded as “dose-dependent decrease” and the ethanol preference entry was “dose-dependent decrease”. Besides, the “locomotor activity compared to vehicle treated animals” value in data set [5] (25 mg/kg s.c.) is on record as “did not show any significant difference”. The sucrose intake entry in data set [6] is “neither TAN-67 [F(1,16)=0.057, p=0.81] nor NTB [F(1,16)=0.62, p=0.44]had an affect”. Besides, in data set [7], the rewarding by itself entry is recorded as “not rewarding”.

On to `COC(=O)/C=C/C(=O)N[C@@H]1CC[C@@]2(O)[C@H]3Cc4ccc(O)c5c4[C@@]2(CCN3CC2CC2)[C@H]1O5` [beta-FNA, β-funaltrexamine], for which the drinking result in data set [8] is listed as “decrease their drinking”.

For `CN1CC[C@]23c4c5ccc(O)c4O[C@H]2[C@@H](O)C=C[C@H]3[C@H]1C5` [morphine], in [9], the “electrically evoked GABA release on activating DOR1” value is reported as “inhibits electrically evoked GABA release”. Besides, in data set [10], the “DOR expression in the VTA” value is listed as “increases”.

As to “(2-D-penicillamine, 5-D-penicillamine)-enkephalin (DPDPE) (peptide)”, the saturating dose for inhibition of evoked IPSCs (dose-response in the presence of 1 µM CTAP) in [11] is 1 µM.

On to Naltriben mesylate [NTB], for which the “ethanol consumption (drinking behavior)” value in data set [2] is “no effect”. Besides, in data set [2] (dose dependence, s.c.), the ethanol consumption entry is reported as “dose dependently decreased” and the ethanol preference result is reported as “dose dependently decreased”. Further, the “locomotor activity compared to vehicle treated animals” value in data set [5] (6 mg/kg s.c.) is given as “did not show any significant difference”. Besides, in [6], the sucrose intake entry was “neither TAN-67 [F(1,16)=0.057, p=0.81] nor NTB [F(1,16)=0.62, p=0.44]had an affect”.

As for TIPP-ψ (peptide), in data set [11], the evoked IPSC amplitude, decrease from baseline, antagonist alone (n=3) is 6.8%; the spontaneous IPSC amplitude, decrease, antagonist alone (n=2) is 2.6%; the spontaneous IPSC frequency, decrease, antagonist alone (n=2) is 8.6%.
